Test results from ChEMBL document CHEMBL4138172, “Synthesis of bis-indolylmethanes as new potential inhibitors of β-glucuronidase and their molecular docking studies” (Eur J Med Chem, 2018).

Target: T1, Beta-glucuronidase (Homo sapiens, UniProt P08236)
T1 sequence (P08236 whole entry): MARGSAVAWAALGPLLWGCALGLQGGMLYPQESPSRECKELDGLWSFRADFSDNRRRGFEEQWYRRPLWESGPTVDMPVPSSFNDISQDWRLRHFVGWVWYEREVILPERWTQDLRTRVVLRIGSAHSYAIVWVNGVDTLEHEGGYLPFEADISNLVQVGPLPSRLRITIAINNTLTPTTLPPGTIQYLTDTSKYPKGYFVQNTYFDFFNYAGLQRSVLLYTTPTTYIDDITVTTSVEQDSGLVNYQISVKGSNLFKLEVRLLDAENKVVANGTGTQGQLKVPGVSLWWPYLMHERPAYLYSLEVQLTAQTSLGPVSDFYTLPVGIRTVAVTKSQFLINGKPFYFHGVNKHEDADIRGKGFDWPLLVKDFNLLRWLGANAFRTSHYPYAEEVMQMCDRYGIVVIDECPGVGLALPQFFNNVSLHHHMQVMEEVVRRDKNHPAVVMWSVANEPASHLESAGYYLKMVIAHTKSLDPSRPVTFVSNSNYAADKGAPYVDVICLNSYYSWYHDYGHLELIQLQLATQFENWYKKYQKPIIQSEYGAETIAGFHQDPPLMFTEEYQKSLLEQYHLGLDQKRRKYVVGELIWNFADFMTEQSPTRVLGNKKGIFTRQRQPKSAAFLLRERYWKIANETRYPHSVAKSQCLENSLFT
Experiment: Inhibition of human beta-glucuronidase

Row | IC50 | SMILES
1 | 3.45 µM | COc1ccc(/C=N/NC(=O)c2ccc3[nH]cc(C(c4ccc(C)cc4)c4c[nH]c5ccc(C(=O)N/N=C/c6ccc(OC)cc6O)cc45)c3c2)c(O)c1
2 | 2.2 µM | Cc1ccc(C(c2c[nH]c3ccc(C(=O)N/N=C/c4cccc(F)c4)cc23)c2c[nH]c3ccc(C(=O)N/N=C/c4cccc(F)c4)cc23)cc1
3 | 1.14 µM | Cc1ccc(C(c2c[nH]c3ccc(C(=O)N/N=C/c4cc(O)ccc4O)cc23)c2c[nH]c3ccc(C(=O)N/N=C/c4cc(O)ccc4O)cc23)cc1
4 | 33.5 µM | Cc1ccc(C(c2c[nH]c3ccc(C(=O)N/N=C/c4cccc(C)c4)cc23)c2c[nH]c3ccc(C(=O)N/N=C/c4cccc(C)c4)cc23)cc1
5 | 1.5 µM | Cc1ccc(C(c2c[nH]c3ccc(C(=O)N/N=C/c4ccccc4O)cc23)c2c[nH]c3ccc(C(=O)N/N=C/c4ccccc4O)cc23)cc1
6 | 1.2 µM | Cc1ccc(C(c2c[nH]c3ccc(C(=O)N/N=C/c4ccccc4F)cc23)c2c[nH]c3ccc(C(=O)N/N=C/c4ccccc4F)cc23)cc1
7 | 12.5 µM | Cc1ccc(/C=N/NC(=O)c2ccc3[nH]cc(C(c4ccc(C)cc4)c4c[nH]c5ccc(C(=O)N/N=C/c6ccc(C)cc6)cc45)c3c2)cc1
8 | 13.1 µM | Cc1ccc(C(c2c[nH]c3ccc(C(=O)N/N=C/c4ccccn4)cc23)c2c[nH]c3ccc(C(=O)N/N=C/c4ccccn4)cc23)cc1
9 | 0.3 µM | Cc1ccc(C(c2c[nH]c3ccc(C(=O)N/N=C/c4ccc(O)c(O)c4)cc23)c2c[nH]c3ccc(C(=O)N/N=C/c4ccc(O)c(O)c4)cc23)cc1
10 | 0.3 µM | Cc1ccc(C(c2c[nH]c3ccc(C(=O)N/N=C/c4ccc(O)cc4O)cc23)c2c[nH]c3ccc(C(=O)N/N=C/c4ccc(O)cc4O)cc23)cc1
11 | 2.8 µM | Cc1ccc(C(c2c[nH]c3ccc(C(=O)N/N=C/c4ccc(F)cc4)cc23)c2c[nH]c3ccc(C(=O)N/N=C/c4ccc(F)cc4)cc23)cc1
12 | 2.35 µM | Cc1ccc(C(c2c[nH]c3ccc(C(=O)N/N=C/c4ccc(O)cc4)cc23)c2c[nH]c3ccc(C(=O)N/N=C/c4ccc(O)cc4)cc23)cc1
13 | 2.98 µM | Cc1ccc(C(c2c[nH]c3ccc(C(=O)N/N=C/C=C/c4ccccc4)cc23)c2c[nH]c3ccc(C(=O)N/N=C/C=C/c4ccccc4)cc23)cc1
14 | 1.1 µM | Cc1ccc(C(c2c[nH]c3ccc(C(=O)N/N=C/c4ccc(Cl)cc4Cl)cc23)c2c[nH]c3ccc(C(=O)N/N=C/c4ccc(Cl)cc4Cl)cc23)cc1
15 | 5.87 µM | Cc1ccc(C(c2c[nH]c3ccc(C(=O)N/N=C/c4cccc(O)c4)cc23)c2c[nH]c3ccc(C(=O)N/N=C/c4cccc(O)c4)cc23)cc1
16 | 0.1 µM | Cc1ccc(C(c2c[nH]c3ccc(C(=O)N/N=C/c4cc(O)c(O)cc4O)cc23)c2c[nH]c3ccc(C(=O)N/N=C/c4cc(O)c(O)cc4O)cc23)cc1

Row | IC50 | SMILES
17 | 32.8 µM | COc1ccc(/C=N/NC(=O)c2ccc3[nH]cc(C(c4ccc(C)cc4)c4c[nH]c5ccc(C(=O)N/N=C/c6ccc(OC)cc6)cc45)c3c2)cc1
18 | 7.57 µM | Cc1ccc(C(c2c[nH]c3ccc(C(=O)N/N=C/c4cccc([N+](=O)[O-])c4)cc23)c2c[nH]c3ccc(C(=O)N/N=C/c4cccc([N+](=O)[O-])c4)cc23)cc1
19 | 22.2 µM | Cc1ccc(C(c2c[nH]c3ccc(C(=O)N/N=C/c4ccccc4C)cc23)c2c[nH]c3ccc(C(=O)N/N=C/c4ccccc4C)cc23)cc1
20 | 32.9 µM | Cc1ccc(C(c2c[nH]c3ccc(C(=O)N/N=C/c4cccnc4)cc23)c2c[nH]c3ccc(C(=O)N/N=C/c4cccnc4)cc23)cc1
21 | 6.9 µM | Cc1ccc(C(c2c[nH]c3ccc(C(=O)N/N=C/c4cccc(Cl)c4)cc23)c2c[nH]c3ccc(C(=O)N/N=C/c4cccc(Cl)c4)cc23)cc1
22 | 2.8 µM | Cc1ccc(C(c2c[nH]c3ccc(C(=O)N/N=C/c4ccccc4Cl)cc23)c2c[nH]c3ccc(C(=O)N/N=C/c4ccccc4Cl)cc23)cc1
23 | 0.1 µM | Cc1ccc(C(c2c[nH]c3ccc(C(=O)N/N=C/c4cccc(O)c4O)cc23)c2c[nH]c3ccc(C(=O)N/N=C/c4cccc(O)c4O)cc23)cc1
24 | 2.1 µM | COc1ccc(O)c(/C=N/NC(=O)c2ccc3[nH]cc(C(c4ccc(C)cc4)c4c[nH]c5ccc(C(=O)N/N=C/c6cc(OC)ccc6O)cc45)c3c2)c1
25 | 42.8 µM | Cc1ccc(C(c2c[nH]c3ccc(C(=O)N/N=C/c4ccccc4)cc23)c2c[nH]c3ccc(C(=O)N/N=C/c4ccccc4)cc23)cc1
26 | 2.67 µM | COc1ccc(/C=N/NC(=O)c2ccc3[nH]cc(C(c4ccc(C)cc4)c4c[nH]c5ccc(C(=O)N/N=C/c6ccc(OC)c(O)c6)cc45)c3c2)cc1O
27 | 23.4 µM | Cc1ccc(C(c2c[nH]c3ccc(C(=O)N/N=C/c4ccncc4)cc23)c2c[nH]c3ccc(C(=O)N/N=C/c4ccncc4)cc23)cc1
28 | 43.5 µM | COc1ccc(/C=N/NC(=O)c2ccc3[nH]cc(C(c4ccc(C)cc4)c4c[nH]c5ccc(C(=O)N/N=C/c6ccc(OC)c(O)c6I)cc45)c3c2)c(I)c1O
29 | 15.8 µM | Cc1ccc(C(c2c[nH]c3ccc(C(=O)N/N=C/c4ccc(F)c(Br)c4)cc23)c2c[nH]c3ccc(C(=O)N/N=C/c4ccc(F)c(Br)c4)cc23)cc1
30 | 0.2 µM | Cc1ccc(C(c2c[nH]c3ccc(C(=O)N/N=C/c4c(O)cc(O)cc4O)cc23)c2c[nH]c3ccc(C(=O)N/N=C/c4c(O)cc(O)cc4O)cc23)cc1
31 | 5.8 µM | Cc1ccc(C(c2c[nH]c3ccc(C(=O)N/N=C/c4ccc(Cl)cc4)cc23)c2c[nH]c3ccc(C(=O)N/N=C/c4ccc(Cl)cc4)cc23)cc1
32 | 48.5 µM | Cc1ccc(C(c2c[nH]c3ccc(C(=O)N/N=C/c4ccccc4[N+](=O)[O-])cc23)c2c[nH]c3ccc(C(=O)N/N=C/c4ccccc4[N+](=O)[O-])cc23)cc1
